# Calls of active or inactive are those of the source.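 Rule for the calls: active = compounds raising the signal whose fitted half-maximal concentration is at or below their top tested dose (cut at about 25 µM in these data); inconclusive = flat fit at 30 to 70% activity, or a poor fit; inactive = the rest.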
# System: INS-1E rat beta cells, no cytokines, CellTiter-Glo ATP, 48 h
# Test: cytokine-free beta-cell viability effect – INS-1E rat cells, ATP luminescence, cherry pick, counter-screen for beta-cell apoptosis protection project, dose response (AID 463229)
row,SMILES,AC50
1,C/C(=N\NC(=O)COc1ccccc1-c1ccccc1)c1ccc(O)cc1O,10.5 µM
2,O=[N+]([O-])c1ccc(-[n+]2ccc3ccccc3c2)c([N+](=O)[O-])c1,7.89 µM
3,COc1cnc(-c2ccccn2)nc1NC(C)C,17.2 µM
4,Oc1c(Br)cc(Br)cc1/C=N/NC(=S)N[C@H]1CC2C=CC1C2 (stereo not given in full),12.1 µM
5,Cc1ccccc1NC(=O)/C=C/c1ccc([N+](=O)[O-])s1,6.96 µM
6,FC(F)(F)c1ccc(CN2C[C@@H]3C(c4ccc(C(F)(F)F)cc4)C4(c5cccnc5)CC3(C4)[C@H]2c2ccccc2)cc1 (stereo not given in full),5.15 µM
7,O=C(N/N=C/c1cc(Cl)ccc1O)c1ccccc1Br,8.9 µM
8,CCC(C)(C)c1ccc(OCCCC[n+]2ccc(C)cc2)c(C(C)(C)CC)c1,1.91 µM
9,CCCCn1c(NS(=O)(=O)c2ccccc2)c(S(=O)(=O)c2ccc(C)cc2)c2nc3ccccc3nc21,22.1 µM
10,CCCCCCCCCCOC(=O)Cn1c(COc2cccc(C)c2)[n+](C)c2ccccc21,4.71 µM
11,O=C([O-])c1cc(-c2ccccc2)cc(-c2ccccc2)[n+]1Cc1ccccc1,1.98 µM
12,Cc1ccc(NC2=C(N3CCCCC3)C(=O)c3ccccc3C2=O)cc1,1.9 µM
13,CCN(CC)c1ccc(C(=O)N/N=C/c2ccccc2OC(F)F)cc1,15.6 µM
14,COc1ccc2cc3[n+](cc2c1OC)CCc1cc2c(cc1-3)OCO2,5.44 µM
15,Nc1nc(Cl)cc(N2CCC(c3cc(-c4ccc(Cl)cc4)n[nH]3)CC2)n1,5.56 µM
16,CC#CC[N+](C)(C)CCCCCCCCCCCC,2.23 µM
17,Cc1ccn2c(Nc3ccccc3)c(-c3ccccn3)nc2c1,7.4 µM
18,Cc1cccc(/C=N\NC(=O)c2ccc(Cl)cc2)c1O,4.8 µM
19,COc1cc(-c2nc3ccc(C)cn3c2NCc2ccccc2)ccc1-c1cccc(Cl)c1,4.66 µM
20,C=C[C@H](Cc1ccccc1)N(Cc1ccccc1)S(=O)(=O)N(Cc1ccccc1)[C@H](C=C)Cc1ccccc1,4.79 µM
21,Oc1c(Cl)cc(Cl)cc1/C=N/Nc1ncc(Br)cn1,3.94 µM
22,CCN(CC)CCNC(=O)c1ccc(NC(=O)c2cn(-c3ccccc3)nc2-c2cccs2)cc1,15.7 µM
23,Cc1ccc(C(=O)Nc2cccc3[nH]c(C(F)(F)F)nc23)cc1,13.3 µM
24,COC(=O)C[C@]1(C(=O)OC)CN(C#N)N(c2ccc(Cl)cc2)C12c1ccccc1-c1ccccc12,4.13 µM
25,COc1ccc2[nH]c3c(C)c4ccncc4c(C)c3c2c1,4.13 µM
26,CCCCNC(=O)c1ccc(Cn2c(=S)[nH]c3c([nH]c4ccc(OC)cc43)c2=O)cc1,6.92 µM
27,C#CCOCCOCCOCCNc1nc(N2CCN(C(=O)CCCCCCCCCCNC(=O)[C@H](CCCCN)n3cc(C)nn3)CC2)nc(N2CCN(C(=O)CCCCCCCCCCNC(=O)[C@@H]([C@H](C)CC)n3cc(CCCCCN)nn3)CC2)n1,6.78 µM
28,COc1ccc(-c2nn(-c3ccccc3)cc2/C=N/N2C(=O)CSC2=S)cc1,6.57 µM

row,SMILES,AC50
1,CCOc1ccc(-c2csc(/C(C#N)=C\c3ccc(O)c([N+](=O)[O-])c3)n2)cc1,4.57 µM
2,CCCCCc1nc2c(c(=O)c3ccccc3n2C)c(=O)n1C1CCCCCC1,6.84 µM
3,CC(=O)N(Cc1ccc(F)cc1)C1=C(NCCc2ccccc2)C(=O)c2ccccc2C1=O,4.13 µM
4,CCCCCc1ccc(OCCCC[n+]2cccc(C)c2)c(CCCCC)c1,2.1 µM
5,Cc1nc2ccccc2n1/N=C/c1ccc([N+](=O)[O-])s1,1.92 µM
6,CCn1c(C)nc2cc(-c3nnc(-c4c(-c5ccccc5)noc4C)o3)ccc21,5.18 µM
7,CCCCCCCCSc1nnc(CSc2nc3nc(C)cc(C)n3n2)o1,26.1 µM
8,O=C(c1ccc(-c2ccc(Cl)cc2)o1)N1CCN(c2ccc([N+](=O)[O-])cc2Cl)CC1,4.92 µM
9,COc1ccc(C(=O)/C(=C\c2ccco2)N2C=CC=CC2=C(C#N)C#N)cc1,7.26 µM
10,Cc1sc2ncnc(NCC(C)(C)N3CCOCC3)c2c1C,6.11 µM
11,COc1cc(NC(C)CCCN)c2ncccc2c1 (stereo not given),13.8 µM
12,Cc1cc(C(=O)C(C)OC(=O)c2ccc(NC(=O)CC#N)cc2)c(C)n1-c1ccc(OC(F)F)cc1 (stereo not given),8.14 µM
13,Oc1c(CN2CCN(c3ccccn3)CC2)cc(Cl)c2cccnc12,5.4 µM
14,O=C(CN1CCCc2ccccc21)N/N=C/c1ccccc1O,15 µM
15,COc1ccc(-c2c[n+]3c4n2CCCCC4=C(c2ccc(Br)cc2)C3)cc1,3.14 µM
16,c1ccc2c(c1)ncn2CCCCOc1ccc2c(c1)CCC2,7.37 µM
17,O=C(CNC(=O)c1ccccc1)N/N=C/c1cc(Br)ccc1O,15.2 µM
18,O=C(CSc1nnc(Cn2nnc3ccccc32)o1)N(Cc1ccc(F)cc1)c1ccccc1,7.94 µM
19,CCCCC(=O)NC(c1ccccc1Cl)c1ccc2cccnc2c1O (stereo not given),2.09 µM
20,CN1C2CCC1/C(=C/c1ccccn1)C(=O)/C2=C\c1ccccn1,2.11 µM
21,Cc1cccc(NC(=O)c2nc(S(=O)(=O)Cc3ccccc3)ncc2Cl)c1,15.8 µM
22,Cc1cc(C)n(-c2nc(Nc3ccccc3C(F)(F)F)nc(-n3nc(C)cc3C)n2)n1,6.87 µM
23,Cc1cc(/C=N/n2cnnc2)c(C)n1-c1ccc(OCc2ccc(Cl)cc2)cc1,1.26 µM
24,COc1cccc(CNCCc2c[nH]c3ccccc23)c1OCc1ccccc1F,7 µM
25,CCn1cc(C(=O)O)c(=O)c2cc(F)c(N/N=C/c3ccccc3[N+](=O)[O-])cc21,7.62 µM
26,CCCOc1ccc(/C=N/NC(=S)Nc2ccccc2[N+](=O)[O-])c(O)c1,7.44 µM
27,CN(Cc1c(F)cccc1Cl)C(=O)c1cc2ccccc2o1,> 26 µM (inactive)
